According to US20240173333A1, “Treating Alagille Syndrome (ALGS)” (priority 2022, published 2024):
“Also recorded” adds a separate entry of the source.

Assays:
[1] = test system: patients with Alagille syndrome (ALGS); assay: ASSERT: PedsQL total and domain scores; type: in vivo, human
Description: […] Additional secondary efficacy endpoints were as follows: • Change from baseline in pruritus to Month 6 (Weeks 21 to 24) as measured by the Albireo PRO instrument. • Percentage of patients achieving a clinically meaningful decrease in pruritus (pruritis responders) as measured by the ObsRO/PRO instruments. • Change from baseline through Week 24 in patient reported and observer reported itching and scratching severity scores, respectively, for the morning assessment and for the evening assessment; sleep parameters as measured with the Albireo ObsRO/PRO instruments (e.g., tiredness and number of awakenings); and PedsQL subdomain scores. • Assessment of Global Symptom Relief to from baseline to Weeks 4, 12, and 24 as measured by patient, caregiver, and clinician Global Impression of Symptoms GIS (PGIS, CaGIS, CGIS) items. • Change from baseline to Week 24 in xanthomatosis as assessed by the Clinician Xanthoma Scale; serum bile acid levels; serum ALT concentration; and serum AST concentration; gamma-glutamyl transferase concentration; total bilirubin concentration. • Change from baseline in biochemical markers and measures of bile acid synthesis (autotaxin, p-C4, only in patients >10 kg); and total cholesterol concentration.
Scores range from 0 and 100, with higher scores indicating better functioning. *n=28 for LS mean change from baseline to week 24. ^†Analysis of change from baseline with odevixibat vs placebo based on ANCOVA model at each visit with baseline score as a covariate and treatment group and age category (<5 years, 5-7 years, 8-12 years, 13-18 years) as fixed effects. ANCOVA=analysis of covariance. LS=least squares. PedsQL=Paediatric Quality of Life Inventory.

[2] = test system: patients with Alagille syndrome (ALGS); assay: ASSERT: safety, treatment-emergent adverse events; type: in vivo, human
Description: Safety. The primary safety analysis for this study included the incidence of total treatment-emergent adverse events (AEs) and treatment-emergent adverse events (TEAEs) categorized by causality, severity, and seriousness assessments made by the investigator by comparing study drug exposure to placebo. Other safety assessments included physical examinations, concomitant medications, vital signs, laboratory tests, and liver ultrasound and elastography.

[3] = test system: patients with Alagille syndrome (ALGS); assay: Pooled ASSERT and ASSERT-EXT: serum bile acids, autotaxin, C4; type: in vivo, human
Method: In the completed 24-week ASSERT study, patients with ALGS with history of significant pruritus and elevated serum BAs were randomized 2:1 to once-daily odevixibat 120 μg/kg or placebo, respectively. Patients who completed ASSERT could enter ASSERT-EXT, an ongoing, 72-week open-label extension study in which all patients receive odevixibat 120 μg/kg/day. This pooled analysis included all odevixibat-treated patients from ASSERT and/or ASSERT-EXT and spans from patients' first dose of odevixibat to a data cut-off of Sep. 9, 2022. Assessments over up to 36 weeks of treatment included change in observer-reported scratching scores and sleep parameters, as well as levels of serum BAs, autotaxin (a proposed meditator of pruritus), and 7 alpha-hydroxy-4-cholesten-3-one (C4; a marker of bile acid synthesis). Safety evaluations included assessment of alanine aminotransferase (ALT), total bilirubin, and treatment-emergent adverse events (TEAEs).

[4] = test system: patients with Alagille syndrome (ALGS); assay: ASSERT pruritus responders: serum bile acids
Description: (§1) Treatment with concomitant medications for pruritus was permitted provided the patient was on a stable dosage for ≥4 weeks prior to enrollment that was maintained throughout the study.
(§2) Pruritus responders were defined as patients having a ≥1-point decrease in ObsRO scratching score from baseline to weeks 21-24).

[5] = test system: patients with Alagille syndrome (ALGS); assay: ASSERT pruritus responders: ObsRO scratching score
Description: as §1, §2

## CCCCC1(CCCC)CN(c2ccccc2)c2cc(SC)c(OCC(=O)N[C@@H](C(=O)N[C@@H](CC)C(=O)O)c3ccc(O)cc3)cc2S(=O)(=O)N1 [odevixibat, 1,1-dioxo-3,3-dibutyl-5-phenyl-7-methylthio-8-(N-{(R)-α-[N-((S)-1-carboxypropyl)carbamoyl]-4-hydroxybenzyl}carbamoylmethoxy)-2,3,4,5-tetrahydro-1,2,5-benzothiadiazepine]
[1]; baseline, n=30
  PedsQL Emotional Functioning, Mean (SD) at baseline: 55.8 (17.8)
  PedsQL Physical Functioning, Mean (SD) at baseline: 71.6 (21.4)
  PedsQL School Functioning, Mean (SD) at baseline: 63.3 (22.9)
  PedsQL Social Functioning, Mean (SD) at baseline: 78.5 (18.8)
[1]; baseline, n=30, score 0-100
  PedsQL Total Score, Mean (SD) at baseline: 67.8 (16.3)
[1]; n=28
  PedsQL Emotional Functioning, LS mean (SE) change from baseline to week 24: 21.0 (3.3)
  PedsQL Physical Functioning, LS mean (SE) change from baseline to week 24: 14.2 (2.9)
  PedsQL School Functioning, LS mean (SE) change from baseline to week 24: 13.3 (3.0)
  PedsQL Social Functioning, LS mean (SE) change from baseline to week 24: 5.1 (3.2)
[1]; n=28, score 0-100
  PedsQL Total Score, LS mean (SE) change from baseline to week 24: 13.5 (2.5)
[2]; 120 μg/kg/day over 24 weeks
  tolerability: generally well tolerated
[2]; 24 weeks
  deaths or TEAEs leading to study drug discontinuation: No deaths or treatment-emergent adverse events leading to study drug discontinuation; also recorded: no deaths or treatment-emergent adverse events (TEAEs) leading to discontinuation of treatment
  incidence of COVID-19: 14.3%
  incidence of GI disorders: 34%
  incidence of abdominal pain (preferred terms abdominal pain and abdominal pain upper): 14%
  incidence of bronchitis: 8.6%
  incidence of infections: 51.4%
  incidence of liver-related events: 11%
  incidence of respiratory tract infection: 8.6%
  incidence of upper respiratory tract infection: 8.6%
[2]; 24 weeks, 120 μg/kg/day
  incidence of SAEs: 14.3%
  incidence of drug-related TEAE diarrhea: 11%
  incidence of drug-related TEAEs: 23%
  incidence of treatment-emergent diarrhea: 29%
[2]; 24 weeks, n=35
  patients with ALT and AST elevations ≥3× baseline without concurrent (within 30 days) elevations in total bilirubin ≥2× baseline: 2 patients
  serious infections reported: 3 patients
[2]; 26 of 35, 24 weeks, 120 μg/kg/day
  patients who experienced at least one TEAE: 74%
[2]; during the study
  liver decompensation events: no cases
[3]; average of weeks 20 and 24
  mean BA level: 145 µmol/L
[3]; baseline, before odevixibat
  mean BA level: 246 µmol/L
[3]; up to 36 weeks
  mean p-C4 levels following treatment: approached normal levels
[3]; week 4
  mean BA level: 116 µmol/L
[3]; week 36
  mean BA level: 116 µmol/L
[4]; average of weeks 20 and 24, n=28
  Bile acids, Week 24 Mean (SE): 136 (19) μmol/L
[4]; baseline to average of weeks 20 and 24
  Bile acids, Mean (SE) Change From Baseline: −107 (23) μmol/L
[4]; n=28
  Bile acids, Baseline Mean (SE): 243 µmol/L
[4]; n=28, listed as Odevixibat
  Bile acids, Baseline Mean (SE): 243 (23) μmol/L
[5]; baseline to weeks 21-24
  Scratching score, Mean (SE) Change From Baseline: −2.0 (0.1)
[5]; n=28
  Scratching score, Baseline Mean (SE): 2.8 (0.1)
[5]; weeks 21-24, n=28
  Scratching score, Week 24 Mean (SE): 0.9 (0.1)
